According to patent publication US20220411846A1, “METHOD FOR PREDICTING THE VIRULENCE AND PATHOGENICITY OF GRAM-NEGATIVE BACTERIAL STRAINS” (priority 2019, published 2022):

System: strains of E. cloacae complex
Assay: E. cloacae complex polymyxin B survival assay
Format: cell-based, Enterobacter cloacae complex
Details: 5 strains expressing 2-hydroxymyristate vs 5 strains not expressing it; 1, 3 and 10 μg/ml; 4 hours
Method: Strains of the Enterobacter complex were selected.
The Enterobacter strains preserved in a tube frozen with 30% glycerol are transplanted in a planktonic culture in 20 ml of an LB culture medium. After incubation at 37° C. overnight, 1 ml of the culture diluted to 10^7 is brought into contact with increasing concentrations of polymyxin B (1 μg/ml, 3 μg/ml and 10 μg/ml). A tube without antibiotic is added as a control.
All the tubes are incubated at 37° C. with shaking for an additional 4 hours. The cultures are then diluted and spread on LB agar Petri dishes.
The dishes are incubated at 37° C. overnight and the colonies are counted.
Percentage survival is computed as follows:
(CFU polymyxin B/CFU control)×100
5 strains of E. cloacae complex expressing 2-hydroxymyristate (2HM) and 5 strains of E. cloacae complex not expressing 2-hydroxymyristate (2HM) were exposed to different concentrations of polymyxin B for 4 hours.

polymyxin B [polymixin B] was tested. Which “Survival of strains after exposure to polymyxin B (FIG. 6)” value did it give?
Its value is “presence of 2-OH myristate on Lipid A generates resistance”.
